Data: BigSolDB 2.1

O=c1c2ccccc2nc2n1CCc1c-2[nH]c2ccccc12
solubility (mole fraction)
Details | 283.2 K | 288.2 K | 293.2 K | 298.2 K | 303.2 K | 313.2 K | 323.2 K
in acetone | 0.000735 | – | 0.000972 | – | 0.00129 | 0.00149 | 0.00196
in chloroform | 0.000287 | – | 0.000511 | – | 0.000922 | 0.00211 | 0.00485
in cyclohexane | 6.24e-06 | – | 1.14e-05 | – | 1.73e-05 | 2.52e-05 | 3.78e-05
in dichloromethane | 0.00142 | 0.00162 | 0.00182 | 0.00196 | 0.00224 | – | –
in diethyl ether | 0.00024 | 0.000273 | 0.000313 | 0.000396 | 0.000454 | – | –
in ethanol | 9.75e-05 | – | 0.000143 | – | 0.000203 | 0.000279 | 0.000394
in ethyl acetate | 0.00104 | – | 0.00123 | – | 0.00153 | 0.00195 | 0.00255
in isopropanol | 7.94e-05 | – | 0.000127 | – | 0.000192 | 0.000292 | 0.000459
in methanol | 6.61e-05 | – | 8.18e-05 | – | 0.000117 | 0.000161 | 0.000229
in n-butanol | 0.000186 | – | 0.000266 | – | 0.000369 | 0.000577 | 0.000955
in n-hexane | 6.17e-06 | – | 1.21e-05 | – | 1.62e-05 | 2.63e-05 | 3.97e-05
in n-pentane | 4.31e-06 | 6.89e-06 | 9.67e-06 | 1.53e-05 | 2.47e-05 | – | –
